{"source": "patent US20110262025A1", "about": "“Cosmetic Compositions and Methods for Maintaining and Improving Barrier Function of the Stratum Corneum and to Reduce the Visible Signs of Aging in Skin” (priority 2010, published 2011)", "key": {"Aquaporin 3": {"system": "Aquaporin 3", "test": "Multiplex mRNA analysis (Panomics QuantiGene Plex) in keratinocytes", "format": "cell-based", "conditions": "neonatal human keratinocytes, 24 hours, vs no treatment", "experimental": "A multiplex mRNA analysis was conducted. RNA was isolated from neonatal human keratinocytes. Neonatal human keratinocytes (Cascade Biologics # C-001-5C) were grown to 40% confluence in 6-well tissue culture plates then treated with compounds for 24 hours (3 replicates per treatment). The treatments included several concentrations of Hexamidine, Niacinamide, and /or Pentanediol. Additionally, 0.00194% (100 μM) caffeine and no-treatment controls were performed.\nSeveral targets were measured with Panomics QuantiGene Plex Assay kit, a multi-analyte quantitative bead-based assay. The fluorescence intensity values, measured by a Bio-Rad Bio-Plex 100 instrument, for those samples yielding sufficient RNA are shown for Aquaporin 3, CDD44 antigen, and Claudin 1. Also measured were Glyceraldehyde-3-phosphate dehydrogenase, Collagen 1α2, Filaggrin, Serine palmitoyltransferase, Interleukin 1,3-hydroxy-3methylglutaryl-coenzyme A reductase, and Interferon gamma."}, "[1]": {"system": "genes associated with SC lipid pathways, Dermaquant model keratinocytes and fibroblasts", "test": "Transcriptional profiling (Affymetrix U133A plus 2) in aged-equivalent skin culture", "format": "cell-based, human", "conditions": "0.1% Hexamidine vs vehicle (water), 4-48 hours", "experimental": "The Experimental design is set forth in Table I. Cultures were treated and harvested at indicated time points. Total RNA extraction, labeling and hybridization to AffymetrixTM U133A plus 2 gene chips were conducted. Data were subjected to normalization and statistical analysis."}, "Epiderm 201 cultures": {"system": "Epiderm 201 cultures", "test": "TEWL (evaporimeter) in epidermal cultures", "format": "cell-based, human", "conditions": "1% Niacinamide, 24 hour treatment", "from_the_text": "Biomarker endpoints and certain clinical skin instrumental measurements, such as those used for skin barrier determinations, can be detected in skin equivalent cultures. As noted above, the stratum corneum barrier consists of flattened, terminally differentiated corneocytes surrounded by specialized lamellar lipids, which act to retard loss of water from the skin's surface. Water loss can be measured functionally by use of an evaporimeter instrument wherein the endpoint measured is TEWL, and is expressed in units of grams of water per skin per hour. In one validity test the present inventors took epidermal cultures from a commercial supplier (Epiderm 201 cultures from MatTek Corp., Ashland Mass.) grew them in cultures for four days whereby the number of differentiated cell layers and stratum corneum thickness was increased during this period. […] These findings indicate that in vitro epidermal constructs form a functional water barrier that can be enhanced by compounds such as Niacinamide."}, "cornification": {"system": "cornification", "conditions": "after barrier disruption; cited from earlier work"}}, "note": "Where a SMILES comes first, the peptide text is derived from it. The star is where a group is joined. Cbz = O=C(OCc1ccccc1)*; CH2F = FC*", "data": [{"compound": "N=C(N)c1ccc(OCCCCCCOc2ccc(C(=N)N)cc2)cc1", "note": "[Hexamidine, 4,4′-(hexamethylenedioxy)dibenzenecarboximidamide]", "values": [{"measurement": "Aquaporin 3 expression", "setting": "Aquaporin 3", "value": "upregulated"}, {"measurement": "cellular cholesterol and fatty acid uptake mechanisms", "setting": "[1]", "value": "up-regulation"}, {"measurement": "expression of gene involved in LB formation (ABCAl2)", "setting": "[1]", "value": "Increased expression"}, {"measurement": "expression of gene involved in LB secretion (ABHD5)", "setting": "[1]", "value": "Increased expression"}, {"measurement": "gene encoding rate limiting enzyme in biosynthesis of cholesterol (HMGCR)", "setting": "[1]", "value": "up-regulation"}, {"measurement": "gene encoding rate limiting enzyme in biosynthesis of fatty acid (ACACA)", "setting": "[1]", "value": "up-regulation"}, {"measurement": "gene encoding rate limiting enzyme in biosynthesis of sphingolipid (SPTLC1/2)", "setting": "[1]", "value": "up-regulation"}, {"measurement": "mitochondrial cholesterol and fatty acid utilization pathways", "setting": "[1]", "value": "down-regulation"}, {"measurement": "transcriptional activators of genes involved in lipid metabolism", "setting": "[1]", "value": "up-regulation"}]}, {"compound": "NC(=O)c1cccnc1", "note": "[Niacinamide]", "values": [{"measurement": "TEWL levels", "setting": "Epiderm 201 cultures", "value": "reduced further"}]}, {"compound": "COC(=O)C[C@H](NC(=O)[C@H](C)NC(=O)[C@@H](NC(=O)OCc1ccccc1)C(C)C)C(=O)CF", "note": "[Z-VAD-FMK] (Cbz-Val-Ala-Asp(OMe)-CH2F)", "values": [{"measurement": "cornification", "setting": "cornification", "value": "delays"}]}, {"compound": "Pentanediol", "values": [{"measurement": "Aquaporin 3 expression", "setting": "Aquaporin 3", "value": "upregulated"}]}]}
